# Measurements reported in paper PMC3230241 (Nature biotechnology, 2011).
# Molecular target: MRCKα (Homo sapiens, UniProt Q5VT25)
# Assay: HotSpot radiometric kinase assay, MRCKα
# Type: biochemical
# Conditions: compound 0.5 μM, 10 μM ATP
# MRCKα, sequence (Q5VT25 1-473): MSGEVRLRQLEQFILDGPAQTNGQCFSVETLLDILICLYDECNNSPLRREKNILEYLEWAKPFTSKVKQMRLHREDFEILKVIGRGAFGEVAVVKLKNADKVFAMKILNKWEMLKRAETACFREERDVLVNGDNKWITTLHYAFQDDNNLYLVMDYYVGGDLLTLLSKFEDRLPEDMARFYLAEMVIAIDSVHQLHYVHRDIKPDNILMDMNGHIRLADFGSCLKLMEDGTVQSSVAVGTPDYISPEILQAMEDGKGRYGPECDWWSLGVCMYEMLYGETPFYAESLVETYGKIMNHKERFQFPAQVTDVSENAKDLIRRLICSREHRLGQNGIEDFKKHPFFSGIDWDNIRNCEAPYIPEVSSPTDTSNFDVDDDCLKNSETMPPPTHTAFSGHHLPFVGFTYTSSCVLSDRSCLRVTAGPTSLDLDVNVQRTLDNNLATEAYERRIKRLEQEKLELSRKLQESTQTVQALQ
compound,measurement,value
O=C(Nc1cccc(Nc2cc(Nc3cccc(C(F)(F)F)c3)ncn2)c1)C1CC1 [EGFR Inhibitor],inhibition of MRCKα (next most potent target),22%
